From US20180192651A1, “THERMAL VOLATILIZATION OF ORCO AGONISTS” (VANDERBILT UNIVERSITY, priority 2015, published 2018)

Columns and labels:
[1] = tested on: Capitate peg neurons B/C (cpB/C), neurons known to contain Orco; experiment: Single sensillum recordings (SSRs), maxillary palp capitate peg neurons B/C; format: in vivo, Anopheles gambiae; conditions: for Puffing cpB/C: Puffing: airstream only for compound delivery; for Huffing cpB/C: Huffing: airstream in combination with heat (propane or butane torch)
Experimental: (§1) Single sensillum recordings (SSRs) were performed on single capitate peg (cp) sensillum along the maxillary palps that house three types of olfactory receptor neurons (ORNs). 5- to 7-d-old non-blood fed female Anopheles gambiae that were maintained on 10% sucrose at 12h/12h light/dark cycle were used. Mosquitoes were immobilized by chilling at -20° C. for 1 min before removing wings and legs and then fixing on a glass coverslip covered with double-sided sticky tape. Maxillary palps were extended and held onto the double-sided sticky tape with a piece of hair brush thread. Chloridized silver wires in drawn-out glass capillaries were filled with 0.1% KCl and used as reference and recording electrodes. The reference electrode was placed in the eye, and recording electrode was brought into contact with the sensillum under the microscope (Olympus BX51WI; 800× magnification) by use of a Piezo-Patch micromaniputor (PPM5000; World Precision Instruments). The signals were digitized by the IDAC4 interface box (Syntech, Hilversum, The Netherlands) and offline analysis carried out by using analyzed with AutoSpike v. 3.2 software (Syntech). The extracellular activity of individual capitate peg sensillum ORNs are physiologically distinct and can be characterized into cpA (large), cpB (medium), and cpC (small) based on their spike amplitudes and shape. Responses were quantified by subtracting the number of spikes 1 s before odor stimulation from the number of spikes 1 s after the onset of odor stimulation from individual preparations. […] A 25 μL (VUAA1) or 25 μL aliquot (VUAnt) was then applied to a filter paper strip and placed inside a glass Pasteur pipette. The compound was then delivered by heating the pipette by a propane or butane torch right at the place of treatment for approximately 1 seconds. The compound was then delivered by puffing the odor cartridges with a controlled 0.5-s stimulus of air (5 mL/s) into a humidified airstream (10 mL/s), which was passed over the sensillum. Alternatively, 2-5 mgs of solid compound were measured into a glass Pasteur pipette. The glass pipette was then exposed to heat from a micro propane or butane torch for approximately 5 to 10 seconds. The compound was then delivered by puffing the odor cartridges with a controlled 0.5-s stimulus of air (5 mL/s) into a humidified airstream (10 mL/s), which was passed over the sensillum. Each compound was subjected to in vivo single […] recordings (SSRs) from the maxillary palp of An. gambiae. Puffing refers to use of an airstream only for compound delivery. Huffing refers to the use of an airstream in combination with heat. Specifically, huffing involved direct combustion of the solid compound via propane or butane torch. […] Capitate peg neurons B/C (cpB/C) are neurons known to contain Orco. Carbon dioxide activates only cpA, while 1-octen-3-ol is a known activator of cpB/C.

[2] = tested on: Capitate peg neuron A (cpA), a carbon dioxide sensor that does not contain Orco; experiment: Single sensillum recordings (SSRs), maxillary palp capitate peg neuron A; format: in vivo, Anopheles gambiae; conditions: cpA is the negative control; for Puffing cpA: Puffing: airstream only for compound delivery; for Huffing cpA: Huffing: airstream in combination with heat (propane or butane torch)
Experimental: as §1

[3] = tested on: odorant receptor neuronal cells expressing Orco; experiment: Currents in odorant receptor neuronal cells expressing Orco; format: cell-based, Drosophila melanogaster; conditions: thermally volatized compound; FIG. 3

Question: Which results are given for `C=CC(O)CCCCC` (centres unmarked) [Compound 1-octen-3-ol, 1-octen-3-ol, reference compound]?
Answer: Puffing cpB/C [1]: +++ (+++ = >40 spikes/s); Puffing cpA [2]: − (− = <10 spikes/s)

Question: Which results are given for `CCn1c(SCC(=O)N2c3ccccc3Sc3ccccc32)nnc1-c1ccco1` [Compound 4, 2-[[4-ethyl-5-(2-furanyul)-4H-1,2,4-triazol-3-yl]thio]-1-(10OH-phenothiazin-10-yl)-ethanone]?
Answer: Huffing cpB/C [1]: + (+ = 10-20 spikes/s); Puffing cpB/C [1]: − (− = <10 spikes/s); Huffing cpA [2]: + (+ = 10-20 spikes/s); Puffing cpA [2]: − (− = <10 spikes/s)

Question: `O=C=O` [CO2, carbon dioxide, reference compound] was tested. Which “Puffing cpB/C” value [1] did it give?
Answer: Its value is “− (− = <10 spikes/s)”.

Question: And the “Puffing cpA” value [2]?
Answer: Its value is “+++ (+++ = >40 spikes/s)”.

Question: Which results are given for `CCn1c(SCC(=O)Nc2ccc(C)cc2)nnc1-c1cccnc1` [Compound 1]?
Answer: Huffing cpB/C [1]: +++ (+++ = >40 spikes/s); Puffing cpB/C [1]: − (− = <10 spikes/s); Huffing cpA [2]: − (− = <10 spikes/s); Puffing cpA [2]: − (− = <10 spikes/s)

Question: `CCc1ccc(NC(=O)CSc2nnc(-c3cccnc3)n2CC)cc1` [Compound 2] was tested. Which “Huffing cpB/C” value [1] did it give?
Answer: The value was “+ (+ = 10-20 spikes/s)”.

Question: What about the “Puffing cpB/C” value [1] of the same molecule?
Answer: Its value is “− (− = <10 spikes/s)”.

Question: What about the “Huffing cpA” value [2] of the same molecule?
Answer: Its value is “− (− = <10 spikes/s)”.

Question: And the “Puffing cpA” value [2]?
Answer: Its value is “− (− = <10 spikes/s)”.

Question: And the “currents induced in odorant receptor neuronal cells expressing Orco” value [3]?
Answer: Its value is “currents induced”.
